Source: patent publication US5958882A, “Compounds that inhibit T cell proliferation and methods using the same” (Thomas Jefferson University, priority 1996, dated 1999)
Bridges are numbered along the chain shown (N, C = ends). Where no end group is shown, it is not given here. [ ]: non-standard residue; d: D form.

Experiments:
[1] = test system: MLR in a BALB/c (H-2D) anti C3H (H-2K) alloresponse; test: MLR of Example 10 (Table II); format: cell-based, mouse; conditions: MLR without peptide 66000 CPM
Experimental: (§1) Mice were sacrificed and spleens aseptically removed. Cell suspensions were made by gently pressing spleens through nylon mesh, washing cells with RPMI 1640 and hypotonic lysis of red blood cells. After 3 washes in RPMI 1640, cells were resuspended in complete medium (RPMI 1640, 10% heat inactivated FCS, 2 mM L-glutamine, penicillin/streptomycin, and […]). 1×10^5 responder cells (BALB/c spleen cells) were incubated with 1×10^5 stimulator cells (C3H spleen cells, 2000 rad irradiated) in triplicate in round bottom 96 well plates (final volume 200 μl), and incubated with the indicated concentration of peptide (0.01, 0.1, 1, 10, 100 and 1000 μM peptide) for 5 days at 37° C., 5% CO2. 1 μCi/WELL OF [^3 H] TdR was added 12 hours before thymidine incorporation was measured. Labelled DNA from cells was harvested onto glass fiber filters with a PHD cell harvester (Cambridge, Mass.), and CPM determined by liquid scintillation counting with the use of a 1209 Rackbeta (LKB, Piscataway, N.J.).
A MLR was performed as described in Example 6. h84-101 C--C, SEQ ID NO:4, SEQ ID NO:5, SEQ ID NO:6, SEQ ID NO:11, (SEQ ID NO:4+SEQ ID NO:5), and a monoclonal antibody directed against CD4 (OKT4A) were tested for their effect on MLR in a BALB/c (H-2D) anti C3H (H-2K) alloresponse. MLR was also performed without the addition of peptide or antibody (MLR). Each peptide individually has inhibitory activity to a moderate level (30-50%), but when two analogs are added together (SEQ ID NO:4 and SEQ ID NO:5) the effect was synergistic and the inhibition approached 100%, as compared to a monoclonal antibody directed against CD4 (OKT4A).

[2] = test system: human T cells stimulated with PHA; test: Phytohemagglutinin T cell proliferation assay; format: cell-based
Experimental: The mitogen phytohemagglutinin (PHA) activates T cells by cross-linking CD3/TCR complexes. Human blood is collected from volunteer donors. Lymphocytes are purified by separation over a Ficoll gradient. T cells are separated by rosetting to sheep red blood cells. The enriched T cell population is stimulated with 5 μg/ml phytohemagglutinin (PHA). FIG. 7 illustrates the ability of the D2 peptide analogs to inhibit T cell proliferation in response to PHA stimulation. […] Results are illustrated in FIG. 7.

[3] = test system: BALB/c spleen cells (responder) with irradiated C3H spleen cells (stimulator); test: Mixed lymphocyte reaction (MLR), BALB/c anti-C3H alloresponse; format: cell-based, mouse
Excerpt: The mixed lymphocyte reaction (MLR) is the response of one individual's T lymphocytes to those of a major histocompatibility complex (MHC) mismatched donor. CD4+ T cells recognize the foreign MHC proteins and proliferate in response to this, in a manner highly dependent on the CD4 molecule.
as §1
A MLR was performed as described in Example 6. Cells were incubated with a 0.01, 0.1, 1, 10, 100, and 1000 μM of each of the following peptides: SEQ ID NO:1 (mPGPtide), and control peptides, SEQ ID NO:3 (hPGPtides) and SEQ ID NO:13 (mCDR3 scramble). […] Activity was approximately 85000 CPM after the addition of 0.01 μM SEQ ID NO:1, and approximately 30000 CPM after the addition of 200 μM SEQ ID NO:1. […] Activity was approximately 75000 CPM at 0.01 μM SEQ ID NO:3, and approximately 60000 CPM after the addition of 200 μM SEQ ID NO:3. Similarly, activity was approximately 80000 CPM after the addition of 0.01 μM of SEQ ID NO:13, and approximately 90000 CPM after the addition of 200 μM SEQ ID NO:13. […]

[4] = test system: human mixed lymphocyte reaction; test: Human mixed lymphocyte reaction (Example 8, FIG. 3); format: cell-based
EAE in SJL mice = test: Experimental allergic encephalomyelitis (EAE) model; format: in vivo, mouse; conditions: for maximum EAE incidence: SJL mice, untreated 83%; for maximum mean EAE severity grade (0-5): untreated 2.17; for average time of initial onset: untreated day 15.6
Experimental: Experimental allergic encephalomyelitis (EAE) is considered to be the best experimental animal model for the study of multiple sclerosis since it shares many of the same clinical and histopathological features as the human disorder. EAE can be elicited in several animal species, including mice, by inoculation of crude CNS tissue extracts, purified MBP, proteolipids, or synthetic polypeptides composed of the active portions of these antigenic molecules. Antigen is administered subcutaneously in conjunction with complete Freund's adjuvant (CFA) and, in our modification of the standard procedure, is given twice on days 0 and 7 for induction (Korngold et al., (1986) Immunogenetics 24:309-315, which is incorporated herein by reference). Symptoms of disease usually occur between 15-19 days after initial immunization and may last for up to 25 days. Mice usually recover from the acute EAE attack, but may relapse at a later time, or are susceptible to an enhanced disease episode upon further immunization.
SJL mice, which are highly susceptible to the induction of acute EAE, were immunized as described in Korngold et al., (1986) Immunogenetics 24:309-315. Accordingly, 1 mg of crude SJL mouse spinal cord homogenate (MSCH) was diluted in 0.15 ml phosphate buffered solution and emulsified in an equal volume of CFA. 0.15 ml of the inoculum was injected subcutaneously in each of two sites on the posterior flank of mice anesthetized with metaphane. A secondary inoculation, similar to the primary, was administered at 7 days. Mice were evaluated daily for symptoms of disease and graded 0-5: 0=no clinical expression of disease; 1=flaccid tail with or without mild hind leg weakness; 2=flaccid tail with moderate hind leg weakness; 3=severe hind leg weakness and mild forelimb weakness; 4=total hind leg paralysis associated with moderate forelimb weakness; and 5=quadriplegia or a moribund state.
The mice were divided into four groups: the first left untreated; the second injected on days 2 and 8 intravenously 10 (i.v.) with 0.5 mg of the D amino acid CDR3-like peptide #1; the third injected on day 12 i.v. with the D amino acid CDR3-like peptide #1; and the fourth injected i.v. on days 2 and 8 with a control D-polypeptide of similar length to the D amino acid CDR3-like peptide #1.
With the same experiment described above, mice from the different treatment groups were scored for the clinical expression of disease. […] The ifferences were statistically significant, by Tukey multiple analysis of variance, between: the untreated and the D amino acid CDR3-like peptide #1 day 2,8 treated group on days 16-19 and 24 […]; the untreated and the D amino acid CDR3-like peptide #1 day 12 treated group on days 16-24 (0.01≤p≤0.05); and the control peptide day 2,8 group and the D amino acid CDR3-like peptide #1 day 2,8 treated group on day 17 (p=0.02).
To investigate whether D amino acid CDR3-like peptide #1 could have an effect upon the development of EAE once symptoms have already appeared and therefore corresponding to the effector phase of the disease, 30 SJL mice were inoculated on days 0 and 7 with MSCH and CFA, as described above. 12 mice that had reached a grade 1 level of clinical EAE expression by day 16 were selected and randomly grouped to be left untreated or treated with 0.5 mg i.v. of D amino acid CDR3-like peptide #1. […] At day 18, the difference between the untreated and treated groups was statistically significant (p=0.003).

[5] = test system: lethal GVHD in irradiated DBA/2 mice given B10.D2 CD4+ T cells; test: GVHD mediated by CD4+ T cells; format: in vivo, mouse; conditions: 0.5 mg i.v. on days 0 and 3
Excerpt: The transplantation of B10.D2 CD4+ T cells along with T-cell-depleted bone marrow has been shown previously to induce a lethal GVHD response in irradiated (850 cGy) DBA/2 mice (Korngold and Sprent, (1987) J. Exp. Med. 165:1552-1564).

Substance: C*RSPRGKNC [SEQ ID NO:6]
- CPM [1]: 50000 CPM
- CPM after PHA stimulation ([2]; 0.25 μM peptide, 5 μg/ml PHA): 48000 CPM
- CPM after PHA stimulation ([2]; 250 μg peptide): 39500 CPM

Substance: CLLVFEVEDQKEEVQGLC [SEQ ID NO:13]
- MLR activity (CPM) ([3]; 0.01 μM peptide): approximately 80000 CPM
- MLR activity (CPM) ([3]; 200 μM peptide): approximately 90000 CPM
- inhibitory activity on MLR ([3]; BALB/c anti-C3H MLR, 5 days, [3H]TdR incorporation): little or no activity
- % CPM of the positive control ([4]; 500 μM peptide): about 100%
- inhibition of the proliferative response of the human MLR ([4]; 0.1-1000 μM): little or no inhibition

Substance: CPGPEEKRNELEC ([dC][dP]G[dP][dE][dE][dK][dR][dN][dE][dL][dE][dC]; disulfide 1-13 (inferred)) [D amino acid CDR3-like peptide #1]
- EAE severity grade reached, effector phase (EAE in SJL mice; 0.5 mg i.v. at grade 1 on day 16, value on day 19, untreated 2.4 by day 18): 1.17
- maximum EAE incidence (EAE in SJL mice; i.v. on day 12): 31%
- maximum EAE incidence (EAE in SJL mice; i.v. on days 2 and 8 (0.5 mg)): 36%
- days of peak EAE severity (EAE in SJL mice; groups treated on days 2,8 or day 12): 19 to 21 days
- effect on the course of disease progression (EAE) (EAE in SJL mice; murine EAE model): dramatically intervened in the progression
- maximum mean EAE severity grade (0-5) (EAE in SJL mice; treated on day 12): 0.75
- average time of initial onset (EAE in SJL mice; treated on day 12): 17.0 days
- maximum mean EAE severity grade (0-5) (EAE in SJL mice; treated on days 2,8): 0.77
- average time of initial onset (EAE in SJL mice; treated on days 2,8): 17.1 days
- incidence of survival ([5]; untreated 83% lethal GVHD): 57%
- median survival time ([5]; untreated 15 days, experiment ended at 65 days): greater than 65 days

Substance: LESPPGSSPSV [SEQ ID NO:5]
- CPM [1]: 48000 CPM
- CPM after PHA stimulation ([2]; 0.25 μM peptide, 5 μg/ml PHA): 53500 CPM
- CPM after PHA stimulation ([2]; 250 μg peptide): 39500 CPM

Substance: TCTNLQNQKKVECK [SEQ ID NO:4]
- CPM [1]: 42000 CPM
- CPM after PHA stimulation ([2]; 0.25 μM peptide, 5 μg/ml PHA): 47000 CPM
- CPM after PHA stimulation ([2]; 250 μg peptide): 38000 CPM
